{
  "source": "paper PMC8869984",
  "about": "“Multifunctional Silver(I) Complexes with Metronidazole Drug Reveal Antimicrobial Properties and Antitumor Activity against Human Hepatoma and Colorectal Adenocarcinoma Cells” (Cancers, 2022)",
  "key": {"S. aureus ATCC 25923": {"system": "S. aureus ATCC 25923", "test": "micro-dilution broth method (MIC, MBC)", "format": "cell-based, Staphylococcus aureus"}, "P. acnes ATCC 11827": {"system": "P. acnes ATCC 11827", "test": "micro-dilution broth method (MIC, MBC)", "format": "cell-based, Propionibacterium acnes"}, "P. intermedia ATCC 25611": {"system": "P. intermedia ATCC 25611", "test": "micro-dilution broth method (MIC, MBC)", "format": "cell-based"}, "F. nucleatum ATCC 25586": {"system": "F. nucleatum ATCC 25586", "test": "micro-dilution broth method (MIC, MBC)", "format": "cell-based, Fusobacterium nucleatum"}, "H. pylori ATCC 43504": {"system": "H. pylori ATCC 43504", "test": "micro-dilution broth method (MIC, MBC)", "format": "cell-based"}, "E. coli ATCC 25922": {"system": "E. coli ATCC 25922", "test": "micro-dilution broth method (MIC, MBC)", "format": "cell-based, Escherichia coli"}, "A. israeli ATCC 10049": {"system": "A. israeli ATCC 10049", "test": "micro-dilution broth method (MIC, MBC)", "format": "cell-based, Actinomyces israelii"}, "B. fragilis ATCC 10240": {"system": "B. fragilis ATCC 10240", "test": "micro-dilution broth method (MIC, MBC)", "format": "cell-based, Bacteroides fragilis"}, "HepG2 cells [1]": {"system": "HepG2 cells", "test": "NRU assay (lysosomal activity), 72 h exposure", "format": "cell-based, human", "settings": "Figure 6", "protocol": "(§1) The human hepatoma (HepG2) and colorectal adenocarcinoma (Caco-2) cells were purchased from the American Type Culture Collection: ATCC HB-8065 and ATCC HTB-37, respectively. These cells were cultured in Minimum Essential Medium Eagle (MEME) (ATCC). The murine fibroblasts cell line (Balb/c 3T3 clone A31) (gift from the Department of Swine Diseases of the National Veterinary Research Institute in Pulawy) was cultured in Dulbecco’s Modified Eagle Medium (DMEM) (ATCC). The media were supplemented with 10% BCS (Balb/c 3T3), 10% FBS (HepG2), 20% FBS (Caco-2), 1% L-glutamine, 1% antibiotic solution. The cells were maintained in 75 cm^2 cell culture flasks (NUNC) in a humidified incubator at 37 °C in an atmosphere of 5% CO2. The medium was refreshed every two or three days, and the cells were trypsinized by 0.25% trypsin–0.02% EDTA after reaching 70–80% confluence. Single cell suspensions were prepared and adjusted to a density of 2 × 10^5 cell/mL^−1 (HepG2), 1 × 10^5 cell/mL^−1 (Caco-2) and 5 × 10^4 cell/mL^−1 (Balb/c 3T3). The cell suspension was transferred to 96-well plates (100 µL/well) and incubated for 24 h before the exposure to the studied compounds. Stock solutions of ligands and metal complexes were prepared in sterile water and diluted with culture medium to obtain a concentration range from 0.1 to 10 µM. The final concentration of sterile water was 0.1% in the medium. […] As a negative control, cultured cells were grown in the absence of studied compounds. Each concentration was tested in six replicates in three independent experiments. Cytotoxicity was assessed after 72 h of exposure of the cells to compounds. The medium was not changed during the incubation time.\nThis method is based on staining living cells with neutral red, which readily diffuses through the plasma membrane and accumulates in lysosomes. […] After 10 min of shaking, the absorbance of the dissolved NR was measured using a Synergy HTX multi-mode reader (BioTek® Instruments Inc., Winooski, VT, USA) at 540 nm using a blank as a reference. Cytotoxicity was expressed as a percentage of the negative control. […]"}, "[2]": {"system": "S. epidermidis ATCC 12228", "test": "micro-dilution broth method (MIC, MBC)", "format": "cell-based, Staphylococcus epidermidis"}, "V. parvula ATCC 10790": {"system": "V. parvula ATCC 10790", "test": "micro-dilution broth method (MIC, MBC)", "format": "cell-based, Veillonella parvula"}, "K. pneumoniae ATCC 13883": {"system": "K. pneumoniae ATCC 13883", "test": "micro-dilution broth method (MIC, MBC)", "format": "cell-based, Klebsiella pneumoniae"}, "HepG2 cells [3]": {"system": "HepG2 cells", "test": "MTT assay (mitochondrial activity), 72 h exposure", "format": "cell-based, human", "settings": "Figure 6", "protocol": "as §1\nThe metabolic activity of living cells was assessed by the measurement of the activity of dehydrogenases. […] The plate was shaken for 15 min at room temperature and transferred to a microplate reader Synergy HTX multi-mode reader (BioTek® Instruments Inc., Winooski, VT, USA) to measure the absorbance at 570 nm, using a blank as a reference. Cytotoxicity was expressed as a percentage of the negative control. […]"}, "B. cereus ATCC 10876": {"system": "B. cereus ATCC 10876", "test": "micro-dilution broth method (MIC, MBC)", "format": "cell-based, Bacillus cereus"}, "[4]": {"settings": "S. aureus ATCC 25923, value in brackets"}, "[5]": {"settings": "P. acnes ATCC 11827, value in brackets"}, "[6]": {"settings": "P. intermedia ATCC 25611, value in brackets"}, "[7]": {"settings": "F. nucleatum ATCC 25586, value in brackets"}, "[8]": {"settings": "H. pylori ATCC 43504, value in brackets"}, "[9]": {"settings": "E. coli ATCC 25922, value in brackets"}, "[10]": {"settings": "A. israeli ATCC 10049, value in brackets"}, "[11]": {"settings": "B. fragilis ATCC 10240, value in brackets"}, "[12]": {"settings": "S. epidermidis ATCC 12228, value in brackets"}, "[13]": {"settings": "V. parvula ATCC 10790, value in brackets"}, "[14]": {"settings": "K. pneumoniae ATCC 13883, value in brackets"}, "[15]": {"settings": "B. cereus ATCC 10876, value in brackets"}},
  "data": [
    {"smiles": "Cc1ncc([N+](=O)[O-])n1CCO.Cc1ncc([N+](=O)[O-])n1CCO.Cc1ncc([N+](=O)[O-])n1CCO.Cc1ncc([N+](=O)[O-])n1CCO.O=S(=O)([O-])[O-].[Ag+].[Ag+]", "note": "[[Ag(MTZ)2]2SO4]", "values": [
      {"measurement": "MBC", "setting": "S. aureus ATCC 25923; S. aureus ATCC 25923", "value": 15.6, "unit": "mg/L"},
      {"measurement": "MIC", "setting": "S. aureus ATCC 25923; S. aureus ATCC 25923", "value": 15.6, "unit": "mg/L"},
      {"measurement": "MBC", "setting": "S. aureus ATCC 25923; [4]", "value": 0.014, "unit": "µM/mL"},
      {"measurement": "MIC", "setting": "S. aureus ATCC 25923; [4]", "value": 0.014, "unit": "µM/mL"},
      {"measurement": "MBC", "setting": "P. acnes ATCC 11827; P. acnes ATCC 11827", "value": 500, "unit": "mg/L"},
      {"measurement": "MBC", "setting": "P. acnes ATCC 11827; [5]", "value": 0.46, "unit": "µM/mL"},
      {"measurement": "MIC", "setting": "P. acnes ATCC 11827; [5]", "value": 0.12, "unit": "µM/mL"},
      {"measurement": "MBC", "setting": "P. intermedia ATCC 25611; P. intermedia ATCC 25611", "value": 15.6, "unit": "mg/L"},
      {"measurement": "MIC", "setting": "P. intermedia ATCC 25611; P. intermedia ATCC 25611", "value": 0.98, "unit": "mg/L"},
      {"measurement": "MBC", "setting": "P. intermedia ATCC 25611; [6]", "value": 0.014, "unit": "µM/mL"},
      {"measurement": "MIC", "setting": "P. intermedia ATCC 25611; [6]", "value": 0.0009, "unit": "µM/mL"},
      {"measurement": "MBC", "setting": "F. nucleatum ATCC 25586; F. nucleatum ATCC 25586", "value": 0.49, "unit": "mg/L"},
      {"measurement": "MIC", "setting": "F. nucleatum ATCC 25586; F. nucleatum ATCC 25586", "value": 0.49, "unit": "mg/L"},
      {"measurement": "MBC", "setting": "F. nucleatum ATCC 25586; [7]", "value": 0.0004, "unit": "µM/mL"},
      {"measurement": "MIC", "setting": "F. nucleatum ATCC 25586; [7]", "value": 0.0004, "unit": "µM/mL"},
      {"measurement": "MBC", "setting": "H. pylori ATCC 43504; H. pylori ATCC 43504", "value": 31.3, "unit": "mg/L"},
      {"measurement": "MIC", "setting": "H. pylori ATCC 43504; H. pylori ATCC 43504", "value": 7.8, "unit": "mg/L"},
      {"measurement": "MBC", "setting": "H. pylori ATCC 43504; [8]", "value": 0.03, "unit": "µM/mL"},
      {"measurement": "MIC", "setting": "H. pylori ATCC 43504; [8]", "value": 0.008, "unit": "µM/mL"},
      {"measurement": "MBC", "setting": "E. coli ATCC 25922; E. coli ATCC 25922", "value": 31.3, "unit": "mg/L"},
      {"measurement": "MIC", "setting": "E. coli ATCC 25922; E. coli ATCC 25922", "value": 15.6, "unit": "mg/L"},
      {"measurement": "MBC", "setting": "E. coli ATCC 25922; [9]", "value": 0.03, "unit": "µM/mL"},
      {"measurement": "MIC", "setting": "E. coli ATCC 25922; [9]", "value": 0.014, "unit": "µM/mL"},
      {"measurement": "MBC", "setting": "A. israeli ATCC 10049; A. israeli ATCC 10049", "value": 15.6, "unit": "mg/L"},
      {"measurement": "MIC", "setting": "A. israeli ATCC 10049; A. israeli ATCC 10049", "value": 7.8, "unit": "mg/L"},
      {"measurement": "MBC", "setting": "A. israeli ATCC 10049; [10]", "value": 0.014, "unit": "µM/mL"},
      {"measurement": "MIC", "setting": "A. israeli ATCC 10049; [10]", "value": 0.007, "unit": "µM/mL"},
      {"measurement": "MBC", "setting": "B. fragilis ATCC 10240; B. fragilis ATCC 10240", "value": 0.98, "unit": "mg/L"},
      {"measurement": "MIC", "setting": "B. fragilis ATCC 10240; B. fragilis ATCC 10240", "value": 0.24, "unit": "mg/L"},
      {"measurement": "MBC", "setting": "B. fragilis ATCC 10240; [11]", "value": 0.0009, "unit": "µM/mL"},
      {"measurement": "MIC", "setting": "B. fragilis ATCC 10240; [11]", "value": 0.0002, "unit": "µM/mL"},
      {"measurement": "lowest concentration with significant (p ≤ 0.05) effect", "setting": "HepG2 cells [1]", "value": 5.0, "unit": "µM"},
      {"measurement": "MBC", "setting": "[2]; S. epidermidis ATCC 12228", "value": 15.6, "unit": "mg/L"},
      {"measurement": "MIC", "setting": "[2]; S. epidermidis ATCC 12228", "value": 7.8, "unit": "mg/L"},
      {"measurement": "MBC", "setting": "[2]; [12]", "value": 0.014, "unit": "µM/mL"},
      {"measurement": "MIC", "setting": "[2]; [12]", "value": 0.007, "unit": "µM/mL"},
      {"measurement": "MBC", "setting": "V. parvula ATCC 10790; V. parvula ATCC 10790", "value": 3.9, "unit": "mg/L"},
      {"measurement": "MIC", "setting": "V. parvula ATCC 10790; V. parvula ATCC 10790", "value": 3.9, "unit": "mg/L"},
      {"measurement": "MBC", "setting": "V. parvula ATCC 10790; [13]", "value": 0.004, "unit": "µM/mL"},
      {"measurement": "MIC", "setting": "V. parvula ATCC 10790; [13]", "value": 0.004, "unit": "µM/mL"},
      {"measurement": "MBC", "setting": "K. pneumoniae ATCC 13883; K. pneumoniae ATCC 13883", "value": 31.3, "unit": "mg/L"},
      {"measurement": "MIC", "setting": "K. pneumoniae ATCC 13883; K. pneumoniae ATCC 13883", "value": 15.6, "unit": "mg/L"},
      {"measurement": "MBC", "setting": "K. pneumoniae ATCC 13883; [14]", "value": 0.03, "unit": "µM/mL"},
      {"measurement": "MIC", "setting": "K. pneumoniae ATCC 13883; [14]", "value": 0.014, "unit": "µM/mL"},
      {"measurement": "lowest concentration with significant (p ≤ 0.05) effect", "setting": "HepG2 cells [3]", "value": 5.0, "unit": "µM"},
      {"measurement": "MIC", "setting": "B. cereus ATCC 10876; B. cereus ATCC 10876", "value": 62.5, "unit": "mg/L"},
      {"measurement": "MBC", "setting": "B. cereus ATCC 10876; [15]", "value": 0.12, "unit": "µM/mL"},
      {"measurement": "MIC", "setting": "B. cereus ATCC 10876; [15]", "value": 0.06, "unit": "µM/mL"}
    ]}
  ]
}
